Data taken from US12195482B1 (Arcus Biosciences, Inc., priority 2022, dated 2025).

How the values were obtained:
[1] = target: T1, recombinant human MER (Homo sapiens, UniProt Q12866); assay: Biochemical potency, HTRF KinEASE-TK kinase assay; conditions: 1 nM MER, 700 μM ATP
T1 construct: purchased Invitrogen
T1 sequence (Q12866 21-999): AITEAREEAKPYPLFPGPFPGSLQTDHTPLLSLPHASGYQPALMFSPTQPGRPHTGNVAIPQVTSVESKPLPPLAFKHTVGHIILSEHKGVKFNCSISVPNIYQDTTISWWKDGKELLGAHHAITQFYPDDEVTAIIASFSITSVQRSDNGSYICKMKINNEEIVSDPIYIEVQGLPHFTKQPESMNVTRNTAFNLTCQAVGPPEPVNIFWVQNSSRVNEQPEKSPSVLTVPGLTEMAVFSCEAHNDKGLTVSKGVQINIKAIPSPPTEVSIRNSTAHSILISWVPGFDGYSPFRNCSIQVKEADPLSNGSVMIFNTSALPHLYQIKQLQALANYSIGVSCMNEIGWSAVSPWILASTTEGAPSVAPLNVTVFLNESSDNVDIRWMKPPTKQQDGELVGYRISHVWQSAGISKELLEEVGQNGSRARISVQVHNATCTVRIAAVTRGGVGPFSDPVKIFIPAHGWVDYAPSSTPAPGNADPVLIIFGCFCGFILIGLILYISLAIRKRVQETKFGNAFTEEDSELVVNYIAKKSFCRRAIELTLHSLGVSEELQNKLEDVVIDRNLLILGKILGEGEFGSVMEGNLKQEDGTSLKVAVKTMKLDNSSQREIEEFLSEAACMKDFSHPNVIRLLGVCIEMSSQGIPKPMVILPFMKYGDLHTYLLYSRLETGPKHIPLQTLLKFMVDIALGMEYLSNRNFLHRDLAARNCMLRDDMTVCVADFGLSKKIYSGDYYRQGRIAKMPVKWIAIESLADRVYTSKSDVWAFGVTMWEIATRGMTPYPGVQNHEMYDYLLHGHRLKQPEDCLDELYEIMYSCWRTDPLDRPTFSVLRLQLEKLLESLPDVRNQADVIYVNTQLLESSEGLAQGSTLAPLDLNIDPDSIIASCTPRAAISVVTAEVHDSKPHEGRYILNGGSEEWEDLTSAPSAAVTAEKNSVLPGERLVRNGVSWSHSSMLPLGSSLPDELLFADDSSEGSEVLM
Method in brief: (§1)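 Compounds preincubated 1 h at RT with enzyme in 50 mM HEPES pH 7.4, 10 mM MgCl2, 0.01% BSA, 1 mM DTT; reactions then ran 2 h at RT with 5 nM AXL or 1 nM TYRO3/MER, 800 nM TK substrate-biotin, 700 μM ATP, 1% DMSO. HTRF 665/620 ratio read; percent activity calculated.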

[2] = target: T2, recombinant human TYRO3 (Homo sapiens, UniProt Q06418); assay: Biochemical potency, HTRF KinEASE-TK kinase assay; conditions: 1 nM TYRO3, 700 μM ATP
T2 construct: purchased Invitrogen
T2 sequence (Q06418 41-890): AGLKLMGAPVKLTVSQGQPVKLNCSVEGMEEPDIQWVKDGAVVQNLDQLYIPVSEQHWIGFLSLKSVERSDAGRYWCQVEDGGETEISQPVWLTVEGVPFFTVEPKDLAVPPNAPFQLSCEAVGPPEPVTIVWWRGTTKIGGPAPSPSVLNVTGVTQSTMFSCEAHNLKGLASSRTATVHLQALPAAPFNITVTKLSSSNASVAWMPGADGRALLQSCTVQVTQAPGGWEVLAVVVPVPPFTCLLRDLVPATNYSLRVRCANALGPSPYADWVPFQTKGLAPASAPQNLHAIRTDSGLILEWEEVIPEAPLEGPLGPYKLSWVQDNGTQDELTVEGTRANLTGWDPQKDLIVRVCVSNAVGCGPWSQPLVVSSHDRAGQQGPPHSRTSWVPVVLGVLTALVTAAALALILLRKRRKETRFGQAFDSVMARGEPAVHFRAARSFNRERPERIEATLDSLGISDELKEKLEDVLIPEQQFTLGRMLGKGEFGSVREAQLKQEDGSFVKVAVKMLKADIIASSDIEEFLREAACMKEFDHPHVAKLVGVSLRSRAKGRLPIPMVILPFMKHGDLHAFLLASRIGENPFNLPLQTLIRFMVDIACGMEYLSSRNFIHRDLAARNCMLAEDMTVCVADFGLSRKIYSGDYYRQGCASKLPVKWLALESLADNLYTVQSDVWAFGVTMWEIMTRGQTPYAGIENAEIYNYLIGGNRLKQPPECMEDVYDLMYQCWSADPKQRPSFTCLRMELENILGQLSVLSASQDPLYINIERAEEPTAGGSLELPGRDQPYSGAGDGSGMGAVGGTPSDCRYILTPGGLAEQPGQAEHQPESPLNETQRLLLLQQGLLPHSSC
Method in brief: as §1

| IC50 [1] [nM] | IC50 [2] [nM] | Structure (SMILES) |
| --- | --- | --- |
| 100 to 1000 | 100 to 1000 | COc1cc(-c2c[nH]c3ncc(-c4ccc5c(c4)CC[C@@H](N4C6COCC4C6)CC5)cc23)ccc1-c1ccccn1 [Example 161, 6-[(7S)-2-{3-[3-Methoxy-4-(pyridin-2-yl)phenyl]-1H-pyrrolo[2,3-b]pyridin-5-yl}-6,7,8,9-tetrahydro-5H-benzo[7]annulen-7-yl]-3-oxa-6-azabicyclo[3.1.1]heptane] |
| 100 to 1000 | 100 to 1000 | COc1ccnc(-c2ccc(-c3n[nH]c4ncc(-c5ccc6c(c5)CC[C@@H](N5C7COCC5C7)CC6)cc34)cc2)c1C [Example 87, 6-[(7S)-3-[3-[4-(4-Methoxy-3-methylpyridin-2-yl)phenyl]-1H-pyrazolo[3,4-b]pyridin-5-yl]-6,7,8,9-tetrahydro-5H-benzo[7]annulen-7-yl]-3-oxa-6-azabicyclo[3.1.1]heptane] |
| 100 to 1000 | 100 to 1000 | COc1ccnc(-c2ccc(-c3c[nH]c4ncc(-c5ccc6c(c5)CC[C@@H](N5C7COCC5C7)CC6)cc34)cc2)c1C [Example 86, 6-[(7S)-3-[3-[4-(4-Methoxy-3-methylpyridin-2-yl)phenyl]-1H-pyrrolo[2,3-b]pyridin-5-yl]-6,7,8,9-tetrahydro-5H-benzo[7]annulen-7-yl]-3-oxa-6-azabicyclo[3.1.1]heptane] |
| 100 to 1000 | 100 to 1000 | Cc1cnc(-c2ccc(-c3c[nH]c4ncc(-c5ccc6c(c5)CC[C@@](C)(N5CCC[C@H]5C)CC6)cc34)cc2)c(C)n1 [Example 57, 3,5-Dimethyl-2-(4-{5-[(7S)-7-methyl-7-[(2R)-2-methylpyrrolidin-1-yl]-6,7,8,9-tetrahydro-5H-benzo[7]annulen-2-yl]-1H-pyrrolo[2,3-b]pyridin-3-yl}phenyl)pyrazine] |
| 100 to 1000 | 100 to 1000 | Fc1cc(-c2c[nH]c3ncc(-c4ccc5c(c4)CC[C@@H](N4C6COCC4C6)CC5)cc23)ccc1-c1ccccn1 [Example 40, 6-[(7S)-2-{3-[3-Fluoro-4-(pyridin-2-yl)phenyl]-1H-pyrrolo[2,3-b]pyridin-5-yl}-6,7,8,9-tetrahydro-5H-benzo[7]annulen-7-yl]-3-oxa-6-azabicyclo[3.1.1]heptane] |
| > 1000 | > 1000 | c1cc(-n2cc(-c3c[nH]c4ncc(-c5ccc6c(c5)CC[C@@H](N5C7COCC5C7)CC6)cc34)cn2)ccn1 [Example 45, 6-[(7S)-2-{3-[1-(Pyridin-4-yl)-1H-pyrazol-4-yl]-1H-pyrrolo[2,3-b]pyridin-5-yl}-6,7,8,9-tetrahydro-5H-benzo[7]annulen-7-yl]-3-oxa-6-azabicyclo[3.1.1]heptane] |
| 100 to 1000 | > 1000 | c1cc(-c2ccc(-c3c[nH]c4ncc(-c5ccc6c(c5)CC[C@@H](N5C7COCC5C7)CC6)cc34)cc2)ccn1 [Example 41, 6-[(7S)-2-{3-[4-(Pyridin-4-yl)phenyl]-1H-pyrrolo[2,3-b]pyridin-5-yl}-6,7,8,9-tetrahydro-5H-benzo[7]annulen-7-yl]-3-oxa-6-azabicyclo[3.1.1]heptane] |
| 100 to 1000 | 100 to 1000 | N#Cc1cccnc1-c1ccc(-c2n[nH]c3ncc(-c4ccc5c(c4)CC[C@@H](N4C6COCC4C6)CC5)cc23)cc1 [Example 52, 2-(4-{5-[(7S)-7-{3-Oxa-6-azabicyclo[3.1.1]heptan-6-yl}-6,7,8,9-tetrahydro-5H-benzo[7]annulen-2-yl]-1H-pyrazolo[3,4-b]pyridin-3-yl}phenyl)pyridine-3-carbonitrile] |
| > 1000 | > 1000 | Cc1nncn1-c1ccc(-c2n[nH]c3ncc(-c4ccc5c(c4)CC[C@@H](N4C6COCC4C6)CC5)cc23)cc1 [Example 11, 6-[(7S)-2-{3-[4-(3-Methyl-4H-1,2,4-triazol-4-yl)phenyl]-1H-pyrazolo[3,4-b]pyridin-5-yl}-6,7,8,9-tetrahydro-5H-benzo[7]annulen-7-yl]-3-oxa-6-azabicyclo[3.1.1]heptane] |
| > 1000 | > 1000 | COc1cccc(-c2ccc(-c3n[nH]c4ncc(-c5ccc6c(c5)CC[C@@H](N5C7COCC5C7)CC6)cc34)cc2)n1 [Example 162, 6-[(7S)-2-{3-[4-(6-Methoxypyridin-2-yl)phenyl]-2H-pyrazolo[3,4-b]pyridin-5-yl}-6,7,8,9-tetrahydro-5H-benzo[7]annulen-7-yl]-3-oxa-6-azabicyclo[3.1.1]heptane] |
| 100 to 1000 | 100 to 1000 | Cc1cnc(-c2ccc(-c3c[nH]c4ncc(-c5ccc6c(c5)CC[C@@H](N5C7COCC5C7)CC6)cc34)cc2)c(C)n1 [Example 50, 6-[(7S)-2-{3-[4-(3,5-Dimethylpyrazin-2-yl)phenyl]-1H-pyrrolo[2,3-b]pyridin-5-yl}-6,7,8,9-tetrahydro-5H-benzo[7]annulen-7-yl]-3-oxa-6-azabicyclo[3.1.1]heptane] |
| 100 to 1000 | 100 to 1000 | C[C@@H]1CCCN1[C@@]1(C)CCc2ccc(-c3cnc4[nH]nc(-c5ccc(-c6nccs6)cc5)c4c3)cc2CC1 [Example 91, 2-(4-{5-[(7S)-7-Methyl-7-[(2R)-2-methylpyrrolidin-1-yl]-6,7,8,9-tetrahydro-5H-benzo[7]annulen-2-yl]-2H-pyrazolo[3,4-b]pyridin-3-yl}phenyl)-1,3-thiazole] |
| 100 to 1000 | < 100 | CN(C)C(=O)c1ccccc1-c1ccc(-c2c[nH]c3ncc(-c4ccc5c(c4)CC[C@@H](N4C6COCC4C6)CC5)cc23)cc1 [Example 92, N,N-Dimethyl-4′-{5-[(7S)-7-{3-oxa-6-azabicyclo[3.1.1]heptan-6-yl}-6,7,8,9-tetrahydro-5H-benzo[7]annulen-2-yl]-1H-pyrrolo[2,3-b]pyridin-3-yl}-[1,1′-biphenyl]-2-carboxamide] |
| < 100 | < 100 | Cc1cncnc1-c1ccc(-c2c[nH]c3ncc(-c4ccc5c(c4)CC[C@@H](N4C6COCC4C6)CC5)cc23)cc1 [Example 47, 6-[(7S)-2-{3-[4-(5-Methylpyrimidin-4-yl)phenyl]-1H-pyrrolo[2,3-b]pyridin-5-yl}-6,7,8,9-tetrahydro-5H-benzo[7]annulen-7-yl]-3-oxa-6-azabicyclo[3.1.1]heptane] |
| 100 to 1000 | 100 to 1000 | Cc1ccnnc1-c1ccc(-c2n[nH]c3ncc(-c4ccc5c(c4)CC[C@@H](N4C6COCC4C6)CC5)cc23)nc1 [Example 56, 6-[(7S)-2-{3-[5-(4-Methylpyridazin-3-yl)pyridin-2-yl]-1H-pyrazolo[3,4-b]pyridin-5-yl}-6,7,8,9-tetrahydro-5H-benzo[7]annulen-7-yl]-3-oxa-6-azabicyclo[3.1.1]heptane] |
| < 100 | < 100 | Cc1ccnnc1-c1ccc(-c2c[nH]c3ncc(-c4ccc5c(c4)CC[C@@](C)(N4CCC[C@H]4C)CC5)cc23)cc1 [Example 51, 4-methyl-3-(4-{5-[(7S)-7-Methyl-7-[(2R)-2-methylpyrrolidin-1-yl]-6,7,8,9-tetrahydro-5H-benzo[7]annulen-2-yl]-1H-pyrrolo[2,3-b]pyridin-3-yl}phenyl)pyridazine] |
